Legend:
[1] = Measured log D (lipophilicity); type: physicochemical
[2] = Brain positron emission tomography (PET) imaging study, dynamic PET; type: in vivo; details: rhesus monkey PET; for order of brain tracer penetration: three 18F-cromolyn analogs compared
Description: Dynamic PET imaging (GE Discovery MI Scanner) in a rhesus monkey was performed with compound 5 (diethyl ester), compound 6 (di-tert-butyl ester), and ^18F-Cromolyn (diacid).

logD [1]	order of brain tracer penetration [2]	time of maximum brain uptake [2] [min]	washout from brain [2]	maximum brain uptake ([2]; at 2 min) [SUV]	brain uptake during washout ([2]; at 20 min) [SUV]	brain uptake during washout ([2]; at 60 min) [SUV]	SMILES	regional brain uptake [2]
3.5	diethyl ester>di-tert-butyl ester>diacid	–	–	–	–	–	CC(C)(C)OC(=O)c1cc(=O)c2c(OCC([18F])COc3cccc4oc(C(=O)OC(C)(C)C)cc(=O)c34)cccc2o1 [Compound 6]	–
2.5	diethyl ester>di-tert-butyl ester>diacid	2	washout was slow	2.3	2	1.5	CCOC(=O)c1cc(=O)c2c(OCC([18F])COc3cccc4oc(C(=O)OCC)cc(=O)c34)cccc2o1 [Compound 5]	uptake in all regions of the brain with the highest in putamen, grey matter and cerebellum followed by caudate, thalamus and white matter
–	diethyl ester>di-tert-butyl ester>diacid	–	–	–	–	–	O=C(O)c1cc(=O)c2c(OCC([18F])COc3cccc4oc(C(=O)O)cc(=O)c34)cccc2o1 [^18F-Cromolyn (diacid), reference compound]	–

Source: patent US12383528B2, “Cromolyn esters and uses thereof” (The General Hospital Corporation, priority 2018, dated 2025)
